Experimental data reported in article PMC6297231 (Nature Communications, 2018).
Read-outs that look alike come from different tables or passages of the source.

Tests used:
KMS12BM = assay: Cell viability assay; format: cell-based; conditions: Homo sapiens, KMS-12-BM, 24 h; KMS12BM (MM); read-out: AZD5991 24h GI50
RPMI8226 = assay: Cell viability assay; format: cell-based; conditions: Homo sapiens, RPMI-8226, 24 h; RPMI8226 (MM); read-out: AZD5991 24h GI50
Protocol: (§1) Cells were plated at 3000 cells/well in 384-well white plates in corresponding cell growth media. […] Caspase-3/7 activation was subsequently determined using a Caspase-Glo 3/7 Reagent (Promega) and viability was assayed using the CellTiter-Glo Reagent (Promega) as described in manufacturer’s instructions. Dose–response curves for caspase-3/7 activation and viability were plotted and analyzed (including EC50 and GI50 determination) using GraphPad Prism.

KMS26 = assay: Cell viability assay; format: cell-based; conditions: KMS-26, 24 h; KMS26 (MM); read-out: AZD5991 24h GI50
Protocol: as §1

LP1 = assay: Cell viability assay; format: cell-based; conditions: Homo sapiens, LP-1, 24 h; LP1 (MM); read-out: AZD5991 24h GI50
Protocol: as §1

KMS11 = assay: Cell viability assay; format: cell-based; conditions: Homo sapiens, KMS-11, 24 h; KMS11 (MM); read-out: AZD5991 24h GI50
Protocol: as §1

U266B1 = assay: Cell viability assay; format: cell-based; conditions: 24 h; U266B1 (MM); read-out: AZD5991 24h GI50
Protocol: as §1

THP-1 = assay: Cell viability assay; format: cell-based; conditions: Homo sapiens, 24 h; THP-1 (AML); read-out: AZD5991 24h GI50
Protocol: as §1

OCIAML5 = assay: Cell viability assay; format: cell-based; conditions: Homo sapiens, OCI-AML-5, 24 h, read-out: AZD5991 24h GI50
Protocol: as §1

DOHH2 = assay: Cell viability assay; format: cell-based; conditions: Homo sapiens, DOHH-2, 24 h; DOHH2 (NHL); read-out: AZD5991 24h GI50
Protocol: as §1

OCILY19 = assay: Cell viability assay; format: cell-based; conditions: Homo sapiens, OCI-LY19, 24 h; OCILY19 (NHL); read-out: AZD5991 24h GI50
Protocol: as §1

Raji = assay: Cell viability assay; format: cell-based; conditions: Homo sapiens, 24 h; Raji (NHL); read-out: AZD5991 24h GI50
Protocol: as §1

RCK8 = assay: Cell viability assay; format: cell-based; conditions: Homo sapiens, 24 h; RCK8 (NHL); read-out: AZD5991 24h GI50
Protocol: as §1

Sudhl5 = assay: Cell viability assay; format: cell-based; conditions: Homo sapiens, SU-DHL-5, 24 h; Sudhl5 (NHL); read-out: AZD5991 24h GI50
Protocol: as §1

Sudhl6 = assay: Cell viability assay; format: cell-based; conditions: Homo sapiens, SU-DHL-6, 24 h; Sudhl6 (NHL); read-out: AZD5991 24h GI50
Protocol: as §1

VAL = assay: Cell viability assay; format: cell-based; conditions: 24 h; VAL (NHL); read-out: AZD5991 24h GI50
Protocol: as §1

H1703 = assay: Cell viability assay; format: cell-based; conditions: Homo sapiens, NCI-H1703, 24 h; H1703 (Lung); read-out: AZD5991 24h GI50
Protocol: as §1

H2110 = assay: Cell viability assay; format: cell-based; conditions: NCI-H2110, 24 h; H2110 (Lung); read-out: AZD5991 24h GI50
Protocol: as §1

SBC5 = assay: Cell viability assay; format: cell-based; conditions: Homo sapiens, SBC-5, 24 h; SBC5 (Lung); read-out: AZD5991 24h GI50
Protocol: as §1

BT20 = assay: Cell viability assay; format: cell-based; conditions: Homo sapiens, BT-20, 24 h; BT20 (Breast); read-out: AZD5991 24h GI50
Protocol: as §1

SNU1197 = assay: Cell viability assay; format: cell-based; conditions: 24 h; SNU1197 (GI); read-out: AZD5991 24h GI50
Protocol: as §1

FaDu = assay: Cell viability assay; format: cell-based; conditions: Homo sapiens, 24 h; FaDu (Others); read-out: AZD5991 24h GI50
Protocol: as §1

OV90 = assay: Cell viability assay; format: cell-based; conditions: Homo sapiens, OV-90, 24 h; OV90 (Others); read-out: AZD5991 24h GI50
Protocol: as §1

KG1 = assay: Caspase-3/7 activation assay; format: cell-based; conditions: Homo sapiens, KG-1, 6 h
Protocol: as §1

primary MM cells = conditions: 48 MM patients, 24 h, Annexin V by flow
[1] = tested on: Eμ-Myc lymphoma cells stably expressing human Bcl-w; assay: Apoptosis induction in Eμ-Myc lymphoma cells; conditions: overexpression of Bcl-w, 24 h
Description: The retroviral plasmids to express human Bcl-2 family members in murine Eμ-Myc lymphoma cells are MSCV-hMCL-1-GFP, MSCV-hBCL-2-GFP, MSCV-hBCL-XL-GFP, MSCV-hBFL-1/A1-GFP, and MSCV-hBCL-w-GFP. To produce viruses, constructs of interest were co-transfected into HEK293T cells with the plasmid encoding the packaging viruses (p-CL-AMPHO provided by Phillip Darcy from Peter MacCallum Cancer Center, Melbourne, Australia) using standard calcium phosphate transient transfection technique. The retroviruses were harvested, filtered and used to infect target cells following standard procedures.
Samples were then centrifuged, washed twice with PBS and analyzed by flow cytometry in a BD LSRFortessa. FACSDiva software was used for data collection and FlowJo software for data analysis.

[2] = tested on: NCI-H23 cells with enhanced expression of Bcl-xL; assay: Cell death in NCI-H23 with doxycycline-inducible Bcl-xL
Description: The lentiviral plasmid pTRIPZ-FLAG-BCL-XL was used for generation of NCI-H23 cells stably expressing doxycyline-inducible Bcl-xL. To produce viruses, the construct of interest was co-transfected into HEK293T cells with a plasmid encoding the packaging viruses (pPACKH1 Lentivector Packaging Kit, cat#LV500A1 SystemBioscience) using Lipofectamine transfection reagent (ThermoFisher Scientific). The lentiviruses were harvested, filtered, and used to infect target cells following standard procedures. Transduced cells were then subject to puromycin selection for 3 weeks before evaluation in apoptosis and cell proliferation assays.
(b) NCI-H23 cells stably expressing doxycycline-inducible Bcl-xL were treated with
determined using CellTiter Glo and GraphPad Prism for data analysis. Data shown is the average of 2 experiments.

`Cc1c2c(nn1C)CSCc1cc(n(C)n1)CSc1cc(c3ccccc3c1)OCCCc1c(C(=O)O)n(C)c3c-2c(Cl)ccc13` (atropisomer, axis not shown; (Ra)) [(Ra)-7] showed a GI50 (KMS12BM) of 0.015 µM, a GI50 (RPMI8226) of 0.055 µM and a GI50 (KMS26) of 0.141 µM. The GI50 (LP1) was 0.258 µM, the GI50 (KMS11) was 0.54 µM and the GI50 (U266B1) was over 30 µM. It also gave a GI50 (THP-1) of 0.076 µM, a GI50 (OCIAML5) of 11 µM and a GI50 (DOHH2) of 0.065 µM. For the same molecule, the GI50 (OCILY19) was 0.14 µM, the GI50 (Raji) was 0.167 µM and the GI50 (RCK8) was over 30 µM. For the same molecule, the GI50 (Sudhl5) was 0.018 µM, the GI50 (Sudhl6) was 0.015 µM and the GI50 (VAL) was 0.102 µM. It also gave a GI50 (H1703) of 0.346 µM, a GI50 (H2110) of 0.14 µM and a GI50 (SBC5) of 0.541 µM. The GI50 (BT20) was 4.63 µM, the GI50 (SNU1197) was 27.3 µM and the GI50 (FaDu) was 8.87 µM. For the same molecule, the GI50 (OV90) was 22.1 µM, the EC50 (KG1; read-out: 6h caspase EC50, KG1, single agent) was over 0.333 µM and the EC50 (KG1; read-out: AZD5991 6h EC50, KG1 (AML), caspase 3/7 activation) was 0.509 µM. The “MM primary samples with EC50 values below 100 nM” value (primary MM cells) was 71%, the apoptosis-inducing activity [1] was “blocked” and the induced cell death [2] was “resistance”.
